Results reported in US20150140002A1, “USE OF A PCSK9 INHIBITOR TO TREAT […]” (Sanofi, priority 2013, published 2015).

Key:
[1] = test system: healthy subjects and hypercholesterolemic patients (familial or non-familial); assay: Phase 1 studies of mAb316P (safety, tolerability, PK/PD; IV or SC); format: in vivo, human
Experimental: Two studies were single dose administration (one study with IV administration of doses from 0.3 mg to 12 mg/kg and another study with SC administration of doses from 50 mg to 250 mg) conducted in healthy subjects with LDL-C>100 mg/dL for whom statin therapy was not indicated. The third study was conducted in hypercholesterolemic patients (familial or non-familial) with single to multiple SC administration of 50 mg, 100 mg, 150 mg and 200 mg either as add-on to stable doses of atorvastatin from 10 mg to 40 mg/day or as monotherapy.
No pattern of adverse events (AEs) related to the drug was identified. […] The magnitude and duration of these reductions were positively related to the dose administered. It should also be noted that in the third study, results were similar in the familial and non-familial hypercholesterolemic patients.

[2] = test system: patients with genotype-confirmed hoFH; details: ezetimibe 10 mg/day added to maximal dose of statins; cited from earlier work

Molecule | reductions from baseline in LDL-C ([1]; Phase 1 studies, up to (maximum)) | tolerability ([1]; healthy subjects and patients, all doses) | total reduction of LDL-C levels [2]
mAb316P: human anti-PCSK9 antibody; heavy chain SEQ ID NO:5, light chain SEQ ID NO:9; HCVR SEQ ID NO:1, LCVR SEQ ID NO:6 | up to 60% | generally well tolerated at all doses | –
O=C1[C@H](CC[C@H](O)c2ccc(F)cc2)[C@@H](c2ccc(O)cc2)N1c1ccc(F)cc1 [ezetimibe, reference compound] | – | – | 27%
